Measured values reported in BindingDB's records for doi:10.7270/Q2H130G1 (Burnham Center For Chemical Genomics, 2010).
pIC50: −log10 of the molar value.

Molecular target: T1, Alkaline phosphatase, tissue-nonspecific isozyme (Homo sapiens, UniProt P05186)
T1 sequence (P05186 whole entry): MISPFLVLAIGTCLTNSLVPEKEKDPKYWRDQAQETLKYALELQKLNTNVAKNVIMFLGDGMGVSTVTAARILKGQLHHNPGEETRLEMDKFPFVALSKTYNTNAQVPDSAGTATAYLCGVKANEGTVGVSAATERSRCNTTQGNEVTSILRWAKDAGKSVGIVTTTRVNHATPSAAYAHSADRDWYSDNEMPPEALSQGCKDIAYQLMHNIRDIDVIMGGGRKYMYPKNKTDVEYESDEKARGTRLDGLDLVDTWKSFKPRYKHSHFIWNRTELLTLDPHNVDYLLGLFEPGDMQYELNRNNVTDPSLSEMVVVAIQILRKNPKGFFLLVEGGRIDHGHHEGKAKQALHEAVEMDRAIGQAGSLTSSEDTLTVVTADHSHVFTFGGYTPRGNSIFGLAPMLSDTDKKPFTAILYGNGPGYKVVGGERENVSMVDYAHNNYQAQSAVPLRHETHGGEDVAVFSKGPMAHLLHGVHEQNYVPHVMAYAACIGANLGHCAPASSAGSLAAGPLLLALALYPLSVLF
Experiment: TNAP enzyme inhibition by screening hits, dose response, selectivity assay for mouse IAP inhibitor project, biochemical, human TNAP, uHTS hits (AID 488906)

| pIC50 | SMILES |
| --- | --- |
| < 4.00 | COc1cc(C=CC(=O)CC(=O)C=Cc2ccc(O)cc2)ccc1O [demethoxycurcumin] |
| < 4.00 | C#CCOCCOCCOCCNc1nc(N2CCN(C(=O)CCCCCCCCCCNC(=O)[C@@H](CCSC)n3cc(CCO)nn3)CC2)nc(N2CCN(C(=O)CCCCCCCCCCNC(=O)[C@H]([C@@H](C)CC)n3cc(CCCCCN)nn3)CC2)n1 [MLS002153719] |
| 4.77 | CC1NON=C1C(=O)NN=CC1=CC(=O)C(=O)C=C1 (stereo not given) [4-Methyl-furazan-3-carboxylic acid (3,4-dihydroxy-benzylidene)-hydrazide] |
| 5.82 | O=C1C=CC(C=NNC(=S)Nc2ccccc2[N+](=O)[O-])C=C1O (stereo not given) [MLS000417596] |
| < 4.00 | Cc1ccc(/C=C2\SC(=S)N(/N=C/C3C=C([N+](=O)[O-])C=CC3=O)C2=O)o1 (stereo not given) [(5Z)-5-[(5-methylfuran-2-yl)methylidene]-3-[[(E)-(3-nitro-6-oxocyclohexa-2,4-dien-1-ylidene)methyl]amino]-2-sulfanylidene-1,3-thiazolidin-4-one] |
| 5.95 | O=C1C=CC(/C=C/c2nc(O)c([N+](=O)[O-])c(=O)[nH]2)C=C1O (stereo not given) [SMR000524347] |
| 4.23 | Oc1ccc(C=Nn2c(O)csc2=S)c(O)c1O [3-[[(E)-[2,3-bis(oxidanyl)-4-oxidanylidene-cyclohexa-2,5-dien-1-ylidene]methyl]amino]-2-sulfanylidene-1,3-thiazolidin-4-one] |
| < 4.00 | COc1cc(C=Nn2c(O)csc2=S)ccc1O [3-[[(E)-(3-methoxy-4-oxidanylidene-cyclohexa-2,5-dien-1-ylidene)methyl]amino]-2-sulfanylidene-1,3-thiazolidin-4-one] |
| < 4.00 | O=C(Nn1c(O)csc1=S)C(=O)Nn1c(O)csc1=S [SMR000349781] |
| < 4.00 | NS(=O)(=O)c1cc(C(=O)NNC2=c3ccccc3=NC2=O)ccc1Cl [2-chloro-5-[[(2-oxoindol-3-yl)amino]carbamoyl]benzenesulfonamide] |
| < 4.00 | C#CCOCCOCCOCCNc1nc(N2CCN(C(=O)CCCCCCCCCCNC(=O)Cn3cc(CCCCCN)nn3)CC2)nc(N2CCN(C(=O)CCCCCCCCCCNC(=O)Cn3cc(C[C@@H](C)O)nn3)CC2)n1 [KG-TG] |
| 5.98 | C#CCOCCOCCOCCNc1nc(N2CCN(C(=O)CCCCCCCCCCNC(=O)[C@H]([C@@H](C)CC)n3cc(CCCCN=C(N)N)nn3)CC2)nc(N2CCN(C(=O)CCCCCCCCCCNC(=O)[C@@H]([C@H](C)O)n3cc(C)nn3)CC2)n1 [GT-RI] |
| 4.69 | Nc1nnc(CC(=O)N/N=C/C2C=C([N+](=O)[O-])C=C(Br)C2=O)s1 (stereo not given) [2-(5-azanyl-1,3,4-thiadiazol-2-yl)-N'-[(E)-(5-bromanyl-3-nitro-6-oxidanylidene-cyclohexa-2,4-dien-1-ylidene)methyl]ethanehydrazide] |
| 6.68 | Cc1ccc(Cl)c2c1NC(=O)/C2=C1/NC(=S)NC1=O |
| < 4.00 | Oc1ccc(CN=Nc2cc(N3CCCC3)nc(N3CCCC3)n2)cc1O [(4Z)-4-[[2-(2,6-dipyrrolidin-1-ylpyrimidin-4-yl)hydrazinyl]methylidene]-2-hydroxycyclohexa-2,5-dien-1-one] |
